Laboratory results as given in PubChem BioAssay (NCI).
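48-hour exposure; five concentrations; linearly interpolated endpoints. GI50 is the concentration that inhibits growth by half. TGI denotes the concentration required for complete inhibition of growth.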

Tests used:
Assay in all cases: NCI-60 cell line screen, 48 h
[1] = system: 786-0 renal
[2] = system: A498 renal
[3] = system: A549 NSCLC
[4] = system: ACHN renal
[5] = system: BT-549 breast
[6] = system: CAKI-1 renal
[7] = system: CCRF-CEM leukemia
[8] = system: COLO 205 colon
[9] = system: DU-145 prostate
[10] = system: EKVX NSCLC
[11] = system: HCT-116 colon
[12] = system: HCT-15 colon
[13] = system: HOP-62 NSCLC
[14] = system: HOP-92 NSCLC
[15] = system: HS 578T breast
[16] = system: HT29 colon
[17] = system: IGROV1 ovarian
[18] = system: K-562 leukemia
[19] = system: KM12 colon
[20] = system: LOX IMVI melanoma
[21] = system: M14 melanoma
[22] = system: MALME-3M melanoma
[23] = system: MCF7 breast
[24] = system: MDA-MB-231 breast
[25] = system: MDA-MB-435
[26] = system: MOLT-4 leukemia
[27] = system: NCI-H226 lung
[28] = system: NCI-H23 lung
[29] = system: NCI-H460 lung
[30] = system: NCI-H522 lung
[31] = system: NCI/ADR-RES ovarian
[32] = system: OVCAR-3 ovarian
[33] = system: OVCAR-4 ovarian
[34] = system: OVCAR-5 ovarian
[35] = system: OVCAR-8 ovarian
[36] = system: PC-3 prostate
[37] = system: RPMI-8226 leukemia
[38] = system: RXF 393 renal
[39] = system: SF-268 CNS
[40] = system: SF-295 CNS
[41] = system: SF-539 CNS
[42] = system: SK-MEL-2 melanoma
[43] = system: SK-MEL-28 melanoma
[44] = system: SK-MEL-5 melanoma
[45] = system: SK-OV-3 ovarian
[46] = system: SN12C renal
[47] = system: SNB-19 CNS
[48] = system: SNB-75 CNS
[49] = system: SW-620 colon
[50] = system: T-47D breast
[51] = system: TK-10 renal
[52] = system: U251 CNS
[53] = system: UACC-257 melanoma
[54] = system: UACC-62 melanoma
[55] = system: UO-31 renal
[56] = system: HCC-2998 colon

`CCOc1c(OC)cc(C2c3cc4c(c(OCC)c3CC3COC(=O)C32)OCO4)cc1OC` (stereo not drawn) gave a TGI [1] of 22.2 µM, a TGI [2] of 67.4 µM and a TGI [3] of 14.2 µM. The TGI [4] was 20.9 µM, the TGI [5] was 64 µM and the TGI [6] was 55.7 µM. For the same molecule, the TGI [7] was 30.1 µM, the TGI [8] was 6.98 µM and the TGI [9] was 12.1 µM. The TGI [10] was greater than 100 µM, the TGI [11] was 11.5 µM and the TGI [12] was 2.68 µM. It also gave a TGI [13] of 17.8 µM, a TGI [14] greater than 100 µM and a TGI [15] of 21.9 µM. It also gave a TGI [16] of 10.4 µM, a TGI [17] of 80.5 µM and a TGI [18] of 19.4 µM. For the same molecule, the TGI [19] was 11.3 µM, the TGI [20] was 14 µM and the TGI [21] was 43.3 µM. The TGI [22] was 79.8 µM, the TGI [23] was greater than 100 µM and the TGI [24] was 6.47 µM. It also gave a TGI [25] of 0.898 µM, a TGI [26] of 7.69 µM and a TGI [27] of 46.9 µM. It also gave a TGI [28] of 5.9 µM, a TGI [29] greater than 100 µM and a TGI [30] of 16.8 µM. It also gave a TGI [31] of 7.17 µM, a TGI [32] of 5.14 µM and a TGI [33] greater than 100 µM. For the same molecule, the TGI [34] was 15.9 µM, the TGI [35] was 6.38 µM and the TGI [36] was greater than 100 µM. For the same molecule, the TGI [37] was 59.3 µM, the TGI [38] was greater than 100 µM and the TGI [39] was 92.6 µM. For the same molecule, the TGI [40] was 3.97 µM, the TGI [41] was 4.91 µM and the TGI [42] was greater than 100 µM. It also gave a TGI [43] greater than 100 µM, a TGI [44] of 14.5 µM and a TGI [45] greater than 100 µM. For the same molecule, the TGI [46] was 6.9 µM, the TGI [47] was greater than 100 µM and the TGI [48] was greater than 100 µM. For the same molecule, the TGI [49] was greater than 100 µM, the TGI [50] was greater than 100 µM and the TGI [51] was 69.6 µM. For the same molecule, the TGI [52] was 11.6 µM, the TGI [53] was 49.1 µM and the TGI [54] was 2.27 µM. The TGI [55] was 27.3 µM.

Molecule `Fc1cc(-c2csc3n[nH]c(=S)n23)c(Cl)cc1Cl` has a GI50 [1] of 22.2 µM, a TGI [1] of 42.7 µM and a GI50 [2] of 19 µM. The TGI [2] was 47.1 µM, the GI50 [3] was 42 µM and the TGI [3] was greater than 100 µM. For the same molecule, the GI50 [4] was 23.7 µM, the TGI [4] was 57.5 µM and the GI50 [5] was 36.4 µM. The TGI [5] was greater than 100 µM, the GI50 [6] was 33 µM and the TGI [6] was greater than 100 µM. The GI50 [8] was 41.7 µM, the TGI [8] was greater than 100 µM and the GI50 [9] was 32.5 µM. For the same molecule, the TGI [9] was greater than 100 µM, the GI50 [10] was 21.1 µM and the TGI [10] was 66 µM. For the same molecule, the GI50 [56] was 25.8 µM, the TGI [56] was 70.1 µM and the GI50 [11] was 27.3 µM. The TGI [11] was 88.8 µM, the GI50 [12] was 32.8 µM and the TGI [12] was greater than 100 µM. The GI50 [13] was 20.1 µM, the TGI [13] was 38.8 µM and the GI50 [14] was 21.1 µM. For the same molecule, the TGI [14] was 55.3 µM, the GI50 [15] was 28.8 µM and the TGI [15] was 92.7 µM. For the same molecule, the GI50 [16] was 65.8 µM, the TGI [16] was greater than 100 µM and the GI50 [17] was 58.9 µM. The TGI [17] was greater than 100 µM, the GI50 [18] was 32.2 µM and the TGI [18] was greater than 100 µM. For the same molecule, the GI50 [19] was 32.6 µM, the TGI [19] was greater than 100 µM and the GI50 [20] was 37.2 µM. For the same molecule, the TGI [20] was greater than 100 µM, the GI50 [21] was 39.9 µM and the TGI [21] was greater than 100 µM. For the same molecule, the GI50 [22] was 41.1 µM, the TGI [22] was greater than 100 µM and the GI50 [23] was 48.4 µM. For the same molecule, the TGI [23] was greater than 100 µM, the GI50 [24] was 14.5 µM and the TGI [24] was 40.1 µM. It also gave a GI50 [25] of 55.8 µM, a TGI [25] greater than 100 µM and a GI50 [27] of 19.6 µM. For the same molecule, the TGI [27] was 59.7 µM, the GI50 [28] was 23.5 µM and the TGI [28] was 78.8 µM. For the same molecule, the GI50 [29] was 35.4 µM, the TGI [29] was greater than 100 µM and the GI50 [30] was 39.2 µM. It also gave a TGI [30] greater than 100 µM, a GI50 [31] of 37.6 µM and a TGI [31] greater than 100 µM. It also gave a GI50 [32] of 34.9 µM, a TGI [32] greater than 100 µM and a GI50 [33] of 27.7 µM. For the same molecule, the TGI [33] was 73.9 µM, the GI50 [34] was 41 µM and the TGI [34] was greater than 100 µM. The GI50 [35] was 44.5 µM, the TGI [35] was greater than 100 µM and the GI50 [36] was 31.4 µM. It also gave a TGI [36] greater than 100 µM, a GI50 [37] of 23.5 µM and a TGI [37] greater than 100 µM. It also gave a GI50 [38] of 21.6 µM, a TGI [38] of 63 µM and a GI50 [39] of 35.5 µM. The TGI [39] was greater than 100 µM, the GI50 [40] was 17.8 µM and the TGI [40] was 50.5 µM. For the same molecule, the GI50 [41] was 24.7 µM, the TGI [41] was 41 µM and the GI50 [42] was 26.7 µM. It also gave a TGI [42] of 76.5 µM, a GI50 [43] of 48.2 µM and a TGI [43] greater than 100 µM. It also gave a GI50 [44] of 55.7 µM, a TGI [44] greater than 100 µM and a GI50 [45] of 35.6 µM. For the same molecule, the TGI [45] was greater than 100 µM, the GI50 [46] was 22.4 µM and the TGI [46] was 58.8 µM. For the same molecule, the GI50 [47] was 47 µM, the TGI [47] was greater than 100 µM and the GI50 [48] was 22.1 µM. It also gave a TGI [48] of 50 µM, a GI50 [49] greater than 100 µM and a TGI [49] greater than 100 µM. For the same molecule, the GI50 [50] was 53.3 µM, the TGI [50] was greater than 100 µM and the GI50 [51] was 38.5 µM. It also gave a TGI [51] greater than 100 µM, a GI50 [52] of 17.1 µM and a TGI [52] of 35.4 µM. It also gave a GI50 [53] of 93.5 µM, a TGI [53] greater than 100 µM and a GI50 [54] of 18.6 µM. The TGI [54] was 48.4 µM, the GI50 [55] was 43 µM and the TGI [55] was greater than 100 µM.
